Measured values from patent US20090163561A1, “AMORPHOUS METAXALONE AND AMORPHOUS DISPERSIONS THEREOF” (URL Pharma, Inc., priority 2007, published 2009).
Read-outs that look alike come from different tables or passages of the source.

Key:
[1] = pH ˜1.5; cited from earlier work
[2] = Moisture balance (moisture sorption-desorption analysis); type: physicochemical; conditions: for post-MB XRPD form: after moisture balance
Excerpt: FIG. 6. Moisture sorption-desorption analysis of metaxalone Form A. FIG. 10. Moisture sorption-desorption analysis of metaxalone Form B.

[3] = Storage stability of solid amorphous metaxalone; type: physicochemical
Protocol: A glass vial containing metaxalone Form A was placed in a silicon oil bath at 155° C. Once the solids had melted, the vial was quickly cooled in a dry ice/acetone bath (about −78° C.). Glassy solids resulted.

SMILES: Cc1cc(C)cc(OCC2CNC(=O)O2)c1 (stereo not shown) [Crystalline metaxalone, 5-(3′,5′-dimethylphenoxy)methyl-2-oxazolidinone]
- solubility at low pH [1]: insoluble

SMILES: Cc1cc(C)cc(OCC2CNC(=O)O2)c1 (stereo not shown) [Metaxalone Form A, 5-(3′,5′-dimethylphenoxy)methyl-2-oxazolidinone]
- MB (moisture balance) result [2]: nonhygroscopic solid
- post-MB XRPD form [2]: Form A

SMILES: Cc1cc(C)cc(OCC2CNC(=O)O2)c1 (stereo not shown) [Metaxalone Form B, 5-(3′,5′-dimethylphenoxy)methyl-2-oxazolidinone]
- MB (moisture balance) result [2]: non-hygroscopic
- post-MB XRPD form [2]: Form B

SMILES: Cc1cc(C)cc(OCC2CNC(=O)O2)c1 (stereo not shown) [Solid Amorphous Metaxalone, 5-(3′,5′-dimethylphenoxy)methyl-2-oxazolidinone]
- stability against conversion to a crystalline form when stored [3]: produce crystalline material
- stability against conversion to a crystalline form when stored ([3]; listed as solid amorphous metaxalone): not stable
